Patent US12194080B2, “Methods for identification, assessment, prevention, and treatment of metabolic disorders using PM20D1 and N-lipidated amino acids” (Dana-Farber Cancer Institute, Inc., priority 2015, dated 2025)

Columns and labels:
[1] = system: Diet induced obese (DIO) mice; assay: Indirect calorimetry (CLAMS) of high fat diet/DIO mice treated with N-acyl amino acids; assay type: in vivo, mouse; details: daily i.p.: C18:1-Leu 25, C18:1-Phe 30, C20:4-Gly 15 mg/kg/day
Experimental: (§1) Animal experiments were performed according to procedures approved by the Beth Israel Deaconess Medical Center IACUC. Mice were maintained in 12 h light-dark cycles at 22° C. and fed a standard irradiated rodent chow diet. All experiments on wild-type mice were performed with male C57BL/6 mice purchased from Jackson Laboratories, except for the AAV experiments, which were performed with male C57BL/6 mice from Charles River. UCP1-KO (stock #017476) and 16-20 week DIO mice (stock #380050) were obtained from Jackson Laboratories. For AAV injection experiments, mice were gently warmed using a 250 W clear infrared heat lamp, immobilized, and injected via tail vein with 10^10 virus/mouse (diluted in saline) in a total volume of 100 μl/mouse. Where indicated, mice were placed on high-fat diet (60% fat, Research Diets). For cold exposure experiments, mice were group housed and placed at 4° C. for the indicated times. For the preparation of C18:1-Phe for in vivo injections, compounds were dissolved in 18:1:1 v/v/v saline:Kolliphor® EL (Sigma Aldrich):DMSO and sonicated until homogeneous. Mice were administered compounds at 5 μl/g body weight at the indicated doses. For all injection experiments, mice were mock injected with saline daily for 3 days prior to the start of the experiments. For glucose tolerance tests (GTTs), mice received their final dose of compound the day prior to the assay and were then fasted overnight. Glucose was administered at 1.5 g/kg.
(§2) Energy expenditure, O2 consumption, CO2 production, respiratory exchange ratio, total locomotor activity, and food intake measurements were made with a 16-cage Columbus Instruments Oxymax Comprehensive Lab Animal Monitoring System (CLAMS) at ambient room temperature (21-23° C.). Mice were acclimated for one day in metabolic cages prior to data collection. Whole-body composition was assessed with an EchoMRI™ 3-in-1 on conscious mice.

[2] = system: Diet induced obese (DIO) mice; assay: Chronic daily i.p. administration of N-acyl amino acids to DIO mice (body weight, food intake, body composition, GTT); assay type: in vivo, mouse; details: chronic treatment, C18:1-Phe 30 or 50 mg/kg/day, C20:4-Gly 15 mg/kg/day, i.p.
Experimental: as §1, §2

[3] = system: differentiated primary iWAT cells; assay: Cellular oxygen consumption rate (Seahorse XF24), differentiated primary iWAT adipocytes; assay type: cell-based, mouse; details: 50 μM, in presence of oligomycin (1 μM)
Experimental: C2C12, U2O5, and 293A cells were cultured in DMEM with 10% FBS and pen/strep. Primary inguinal (iWAT) and brown (BAT) adipocytes were obtained as follows. The stromal-vascular fraction of inguinal (iWAT) pad from 4-12 week old male mice was dissected, minced, and digested for 45 min. at 37° C. in PBS containing 10 mM CaCl2, 2.4 U/ml dispase II (Roche), and 1.5 U/ml collagenase D (Roche). The stromal-vascular fraction of brown fat (BAT) pads from newborn (P1-P14) pups was dissected, minced, and digested for 45 min at 37° C. in PBS containing 1.3 mM CaCl2, 120 mM NaCl, 5 mM KCl, 5 mM glucose, 100 mM HEPES, 4% BSA, and 1.5 mg/ml collagenase B (Roche). Digested tissue was diluted with adipocyte culture media (DMEM/F-12, GlutaMAX™ supplement, Life Technologies, with 10% FBS and pen/strep) and centrifuged (600×g for 10 min.). The pellet was resuspended in 10 ml adipocyte culture media, strained through a 40 μm filter, and plated. Differentiation was induced by application of an adipogenic cocktail containing 5 μg/ml insulin (Sigma), 5 μM dexamethasone (Sigma), 250 μM isobutylmethylxanthine (Sigma), and 1 μM rosiglitazone (Cayman) for 2 days. Two days after induction, cells were maintained in adipocyte culture media containing 5 μg/ml insulin and 1 μM rosiglitazone.
(§3) Cellular oxygen consumption rates were determined using an XF24 Extracellular Flux Analyzer (Seahorse Biosciences). Oligomycin was purchased from EMD Millipore, and FCCP and rotenone were purchased from Sigma. C2C12 or U2OS cells were seeded at 30,000 or 50,000 cells/well, respectively in an XF24 cell culture microplate (V7-PS, Seahorse Bioscience) and analyzed the following day. Primary iWAT or BAT adipocytes were seeded at 15,000 cells/well, differentiation was induced the following day as described, and the cells were analyzed on day 5. On the day of analysis, the cells were washed once with Seahorse respiration buffer (8.3 g/1 DMEM, 1.8 g/l NaCl, 1 mM pyruvate, 20 mM glucose, pen/strep), placed in 0.5 ml Seahorse respiration buffer, and incubated in a CO2-free incubator for 1 hr. Port injection solutions were prepared as follows (final concentrations in assay in parentheses): 10 μM oligomycin (1 μM final), […] amino acid (50 μM final), 2 μM FCCP (0.2 μM final), and 30 μM rotenone (3 μM final). The Seahorse program was run as follows: basal measurement, 3 cycles; inject port A (oligomycin), 3 cycles; inject port B (compounds), 8 cycles; inject port C (FCCP), 3 cycles; inject port D (rotenone), 3 cycles. Each cycle consisted of mix 4 min, wait 0 min, and measure 2 min. For data expressed as a percentage of oligomycin-treated basal, the respiration at cycle 6 was normalized to 100%, and the maximum respiration at any time point between cycles 7 and 15 inclusive was used.

[4] = Plasma AST, ALT and cytokine array after chronic treatment of DIO mice; assay type: in vivo, mouse; details: 9 days chronic treatment, versus vehicle
Experimental: FIG. 14 includes 11 panels, identified as panels A, B, C, D, E, F, G, H, I, J, and K, which show the effects of chronic C20:4-Gly administration to mice. Panels A-F show the change in body weight (Panel A), daily and cumulative food intake (Panels B and C), and total body weight at day 7 (Panel D), VO2 (Panel E), and movement (Panel F) of 14 week DIO mice treated daily with vehicle or C20:4-Gly (20 mg/kg/day, i.p.). For Panels E and F, measurements were recorded for 2 days following 7 days chronic treatment with vehicle or C20:4-Gly (20 mg/kg/day, i.p.); during this time daily administration of the indicated compounds continued. […] Panels G-J show plasma AST (Panel G), ALT (Panel H), and plasma cytokine array profiling (Panels I and J) following 9 days chronic treatment with vehicle or C20:4-Gly (20 mg/kg/day, i.p.). For Panels G-J, plasma was collected 24 hr following the last dose of vehicle or C20:4-Gly. For Panels A-H, n=8/group, mean±SEM, *p<0.05, **p<0.01. For Panels I and J, plasma from 4 mice/group were pooled for each array.

[5] = system: primary inguinal fat cells, primary BAT cells, C2C12 cells, and U2OS cells; assay: Uncoupled respiration cellular assays (variety of cell types); assay type: cell-based; details: N-acyl amino acids at 10-100 uM
Experimental: as §3

C2C12 cells = assay: Mitochondrial membrane potential by TMRM fluorescence; assay type: cell-based, mouse; details: 20 min
Experimental: Mitochondrial membrane potential was measured using tetramethylrhodamine methyl ester (TMRM, Life Technologies) fluorescence. C2C12 cells were plated in 6-well plates and grown to 80-90% confluence. Cells were then washed once with PBS and switched into Seahorse respiration buffer with the indicated compounds at the indicated concentrations: TMRM (100 nM), oligomycin (1 μM), FCCP (0.4 μM), and C18:1-Phe (10 or 50 μM). After 20 min. incubation at 37° C., the media was aspirated, cells were washed once with PBS, and trypsinized. Trypsinized cells were directly resuspended in PBS (total volume 300 μl), stored on ice, and analyzed on a FACSCanto™ II (BD Biosciences) with 20,000 events per sample.

SMILES: CCCCC/C=C\C/C=C\C/C=C\C/C=C\CCCC(=O)NCC(=O)O [C20:4-Gly, N-arachidonoyl glycine]
- VO2 [1]: significantly augmented
- movement [1]: no effects
- food intake [2]: reduced food intake
- maximal OCR versus DMSO at the same time point [3]: 285%
- maximal OCR versus oligomycin-treated basal respiration [3]: 295%
- plasma ALT [4]: no sigificant elevations
- plasma AST [4]: no sigificant elevations
- plasma cytokines [4]: no sigificant elevations
- uncoupled respiration in cells [5]: increased uncoupled respiration

SMILES: N#CC(C#N)=NNc1ccc(OC(F)(F)F)cc1 [FCCP]
- decrease of TMRM fluorescence (C2C12 cells; co-treatment with oligomycin 1 μM, C18:1-Phe 50 μM, FCCP 0.4 μM): ~70%

SMILES: CC[C@H]1/C=C/C=C/C[C@@H](C)[C@H](O)[C@@](C)(O)C(=O)[C@@H](C)[C@H](O)[C@@H](C)C(=O)[C@@H](C)[C@H](O)[C@@H](C)/C=C/C(=O)O[C@@H]2[C@H](C)[C@H](CC1)O[C@]1(CC[C@H](C)[C@H](C[C@@H](C)O)O1)[C@H]2C [oligomycin]
- mitochondrial membrane potential (C2C12 cells; TMRM fluorescence): increased the membrane potential
